Source: US4831027A, “Imidazo-benzoxazinones, the preparation thereof and pharmaceutical compositions containing these compounds” (Dr. Karl Thomae GmbH, priority 1986, dated 1989)

System: anaesthetized cats
Assay: Determination of the effect on blood pressure and positive inotropic activity in anaesthetized cats
Format: in vivo
Conditions: 0.3 mg/kg i.v., average of 2 cats; for Diastolic blood pressure change: anaesthetized cats (sodium pentobarbital), pressure in aorta abdominalis; for Duration of effect (half life) / Increase of dp/dt (contractility parameter dp/dtmax): anaesthetized cats; for Increase of dp/dt (contractility parameter dp/dtmax): pressure in left ventricle, catheter-tip manometer
Procedure: 1. Determination of the effect on blood pressure and positive inotropic activity in anaesthetized cats: The tests were carried out on cats which had been anaesthetized with sodium pentobarbital (40 mg/kg i.p. and 8 mg/kg/hour i.v.). The animals breathed spontaneously. The arterial blood pressure was measured in the aorta abdominalis using a Statham pressure transducer (P 23 Dc). To determine the positive inotropic activity the pressure in the left ventricle was measured using a catheter-tip manometer (Millar PC-350 A). From this, the contractility parameter dp/dtmax was obtained using an analogue differentiator. The test substance was injected into a vena femoralis. Polydiol 200 was used as solvent. The substance was tested on 2 cats, dosage 0.3 mg/kg i.v.

SMILES	Diastolic blood pressure change [mmHg]	Duration of effect (half life) [min]	Increase of dp/dt (contractility parameter dp/dtmax)
CC1(C)OC(=O)Nc2cc3nc(-c4ccncc4)[nH]c3cc21 [A, 8,8-dimethyl-2-(4-pyridyl)-8-hydro-(5H)-imidazo[5,4-g][3,1]benzoxazin-6-one]	0	18	+43%
CCN1C(=O)OC(C)(C)c2cc3[nH]c(-c4ccncc4)nc3cc21 [B, 5-ethyl-8,8-dimethyl-2-(4-pyridyl)-8-hydro-(5H)imidazo[5,4-g][3,1]benzoxazin-6-one]	-21	16	+52%
CCCc1nc2cc3c(cc2[nH]1)C(C)(C)OC(=O)N3 [C, 8,8-dimethyl-2-n-propyl-8-hydro-(5H)-imidazo[5,4-g][3,1]benzoxazin-6-one]	-11	11	+31%
CCN1C(=O)OC(C)(C)c2cc3[nH]c(-c4ccco4)nc3cc21 [D, 5-ethyl-8,8-dimethyl-2-(2-furyl)-8-hydro-(5H)imidazo[5,4-g][3,1]benzoxazin-6-one]	-37	4	+41%
CC1(C)OC(=O)Nc2cc3nc(-c4ccco4)[nH]c3cc21 [E, 8,8-dimethyl-2-(2-furyl)-8-hydro-(5H)-imidazo[5,4-g][3,1]benzoxazin-6-one]	-16	7	+31%
CC1(C)OC(=O)Nc2cc3nc(-c4cccs4)[nH]c3cc21 [F, 8,8-dimethyl-2-(2-thienyl)-8-hydro-(5H)-imidazo[5,4-g][3,1]benzoxazin-6-one]	-24	10	+28%
